Test results from ChEMBL document CHEMBL2016574, “Substituted aminopyrimidine protein kinase B (PknB) inhibitors show activity against Mycobacterium tuberculosis” (Bioorg Med Chem Lett, 2012).
Activity calls are given as the source filed them. The rule behind the calls is not given here.

Tests used:
[1] = biological target: Serine/threonine-protein kinase PknG (Mycobacterium tuberculosis) (UniProt P9WI73); test: Inhibition of Mycobacterium tuberculosis PknG
[2] = biological target: T1, Serine/threonine-protein kinase PknF (Mycobacterium tuberculosis) (UniProt P9WI75); test: Inhibition of Mycobacterium tuberculosis PknF
T1 sequence (whole entry): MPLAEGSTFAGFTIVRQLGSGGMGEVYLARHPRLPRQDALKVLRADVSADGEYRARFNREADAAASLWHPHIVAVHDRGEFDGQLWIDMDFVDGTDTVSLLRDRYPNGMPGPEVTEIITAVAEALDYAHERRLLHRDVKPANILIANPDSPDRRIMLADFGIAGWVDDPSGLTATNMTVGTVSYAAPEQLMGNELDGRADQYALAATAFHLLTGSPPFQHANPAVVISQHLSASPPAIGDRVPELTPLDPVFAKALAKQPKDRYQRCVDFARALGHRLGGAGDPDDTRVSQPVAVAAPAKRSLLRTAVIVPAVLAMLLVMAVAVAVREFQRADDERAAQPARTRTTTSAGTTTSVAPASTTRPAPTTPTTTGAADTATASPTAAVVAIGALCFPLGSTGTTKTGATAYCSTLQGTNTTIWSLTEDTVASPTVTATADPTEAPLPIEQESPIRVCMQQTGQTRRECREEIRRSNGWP

[3] = Protein binding in plasma; format: ADME, cell-free; conditions: read-out: PPB

Chain of Serine/threonine-protein kinase PknG (Mycobacterium tuberculosis) (P9WI73 whole entry): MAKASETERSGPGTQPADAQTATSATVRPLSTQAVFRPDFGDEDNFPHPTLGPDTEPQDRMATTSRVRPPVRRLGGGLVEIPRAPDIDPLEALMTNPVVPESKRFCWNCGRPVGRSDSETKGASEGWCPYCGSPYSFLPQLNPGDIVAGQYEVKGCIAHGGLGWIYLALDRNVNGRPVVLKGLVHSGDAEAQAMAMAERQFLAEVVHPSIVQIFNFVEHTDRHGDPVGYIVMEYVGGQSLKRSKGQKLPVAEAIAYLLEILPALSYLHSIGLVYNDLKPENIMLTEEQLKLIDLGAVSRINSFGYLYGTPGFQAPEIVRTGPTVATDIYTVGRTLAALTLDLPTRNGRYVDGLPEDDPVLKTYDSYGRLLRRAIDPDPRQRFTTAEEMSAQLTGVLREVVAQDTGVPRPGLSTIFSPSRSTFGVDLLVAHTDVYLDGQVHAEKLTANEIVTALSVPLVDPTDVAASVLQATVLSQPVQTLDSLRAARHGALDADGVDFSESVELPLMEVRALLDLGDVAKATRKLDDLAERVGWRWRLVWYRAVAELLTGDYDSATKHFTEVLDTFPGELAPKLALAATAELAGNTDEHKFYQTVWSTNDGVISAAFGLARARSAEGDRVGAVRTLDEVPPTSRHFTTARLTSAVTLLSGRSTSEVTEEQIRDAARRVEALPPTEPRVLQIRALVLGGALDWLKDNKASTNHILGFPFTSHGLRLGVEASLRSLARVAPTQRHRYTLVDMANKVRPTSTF

SMILES | inhibition [1] | inhibition [2] | fraction unbound [3]
NC(=O)c1cccc(-c2nccc(Nc3cc(C4CC4)[nH]n3)n2)c1 | Active | Active | –
CS(=O)(=O)c1cccc(-c2nccc(Nc3cc(C4CC4)[nH]n3)n2)c1 | Active | Active | –
Clc1ccccc1CCNc1nccc(Nc2cc(C3CC3)[nH]n2)n1 | Active | Active | –
c1ccc2c(Nc3cc(C4CC4)n[nH]3)nc(-c3ccncc3)nc2c1 | – | – | < 0.01
CN(C)[C@@H]1CCN(c2cc(Nc3cc(Cl)ccn3)nc(-c3ccccc3)n2)C1 | Active | Active | –
CN(C)CCNc1cc(Nc2cc(C3CC3)[nH]n2)nc(-c2ccccc2)n1 | Active | Active | –
CN1CCC(CNc2cc(Nc3cc(C4CC4)[nH]n3)nc(-c3cccc(S(C)(=O)=O)c3)n2)CC1 | Active | Active | –
c1ccc(-c2nc(Nc3cc(C4CC4)[nH]n3)cc(OCCN3CCCC3)n2)cc1 | Active | Active | –
CN(C)[C@@H]1CCN(c2cc(Nc3cc(C(F)(F)F)ccn3)nc(-c3cccc(C#N)c3)n2)C1 | Active | Active | –
c1ccc(CNc2nccc(Nc3cc(C4CC4)[nH]n3)n2)cc1 | Active | Active | –
COc1ccnc(Nc2cc(N3CC[C@@H](N(C)C)C3)nc(-c3ccccc3)n2)c1 | Active | Active | –
c1cc(Nc2cc(C3CC3)[nH]n2)nc(NC2CCCC2)n1 | Active | Active | –
Fc1ccc(-c2nc(Nc3cc(C4CC4)[nH]n3)c3ccccc3n2)cc1 | Active | Active | –
CN1CCC(CNc2cc(Nc3cc(C4CC4)[nH]n3)nc(-c3ccccc3)n2)CC1 | Active | Active | –
Fc1ccc(-c2nc(Nc3cc[nH]n3)c3ccccc3n2)cc1 | Active | Active | < 0.01
Cc1cc(Nc2nc(-c3ccncc3)nc3ccccc23)n[nH]1 | Active | Active | –
c1ccc(-c2nc(Nc3cc(C4CC4)n[nH]3)c3ccccc3n2)cc1 | – | – | < 0.01
CN1CCN(c2cc(Nc3cc(C4CC4)[nH]n3)nc(-c3ccccc3)n2)CC1 | Active | Active | –
CN(C)[C@@H]1CCN(c2cc(Nc3cc(C4CC4)[nH]n3)nc(-c3ccccc3)n2)C1 | Active | Active | –
CS(=O)(=O)Nc1cccc(-c2nccc(Nc3cc(C4CC4)[nH]n3)n2)c1 | Active | Active | –

SMILES | inhibition [1] | inhibition [2] | fraction unbound [3]
c1ccc2c(Nc3cc(C4CC4)[nH]n3)nc(NCC3CC3)nc2c1 | Active | Active | –
CC(C)CCNc1nccc(Nc2cc(C3CC3)[nH]n2)n1 | Active | Active | –
Fc1cccc(CCNc2nccc(Nc3cc(C4CC4)[nH]n3)n2)c1 | Active | Active | –
c1cc(Nc2cc(C3CC3)[nH]n2)nc(NCC2CC2)n1 | Active | Active | –
CN1CCC(Nc2cc(Nc3cc(C4CC4)[nH]n3)nc(-c3ccccc3)n2)CC1 | Active | Active | –
CN(C)CCNc1cc(Nc2cc(C3CC3)[nH]n2)nc(-c2cccc(C#N)c2)n1 | Active | Active | –
c1cc(Nc2cc(C3CC3)[nH]n2)nc(NC2CCCCC2)n1 | Active | Active | –
Fc1ccc(-c2nc(Nc3cc(C4CC4)n[nH]3)c3ccccc3n2)cc1 | – | – | < 0.01
N#Cc1cccc(-c2nccc(Nc3cc(C4CC4)[nH]n3)n2)c1 | Active | Active | –
CN1CCC(CNc2cc(Nc3cc(C4CC4)[nH]n3)nc(-c3cccc(C#N)c3)n2)CC1 | Active | Active | –
CN(C)[C@@H]1CCN(c2cc(Nc3ccccn3)nc(-c3cccc(C#N)c3)n2)C1 | Active | Active | –
c1ccc2c(Nc3cc(C4CC4)[nH]n3)nc(NC3CCCCC3)nc2c1 | Active | Active | < 0.01
Fc1ccc(-c2nccc(Nc3cc(C4CC4)[nH]n3)n2)cc1 | Active | Active | –
c1ccc2c(Nc3cc(C4CC4)n[nH]3)nc(NCC3CC3)nc2c1 | – | – | < 0.01
CS(=O)(=O)NCc1ccc(-c2nccc(Nc3cc(C4CC4)[nH]n3)n2)cc1 | Active | Active | –
c1cncc(-c2nccc(Nc3cc(C4CC4)[nH]n3)n2)c1 | Active | Active | –
CN(C)[C@@H]1CCN(c2cc(Nc3cc(C4CC4)[nH]n3)nc(-c3cccc(C#N)c3)n2)C1 | Active | Active | –
c1ccc2c(Nc3cc(C4CC4)[nH]n3)nc(-c3ccncc3)nc2c1 | Active | Active | –
Cc1cc(Nc2nc(-c3ccc(F)cc3)nc3ccccc23)n[nH]1 | Active | Active | < 0.01
c1ccc(-c2nc(Nc3cc(C4CC4)[nH]n3)c3ccccc3n2)cc1 | Active | Active | –
